Source: paper PMC9207808 (ACS Chemical Biology, 2022)
Residues, ends and D or L forms follow the SMILES beside them.

What was measured:
DocSTm [1] = experiment: Surface plasmon resonance binding to immobilised Doc; parameters: species or system S. Typhimurium; conditions: for koff × 10^-6 / kon × 10^6: 1:1 kinetic fit, mean ± SD of at least 3 replicates; for kon × 10^6: single-cycle kinetics (multicycle for PhdSTm1-73); for Half-life of the complex: t1/2 = ln2 / koff
Procedure: Experiments were performed in a Biacore S200 (Cytiva) with a Series S sensor chip NTA (Cytiva). The data was analyzed using the Biacore Evaluation Software (Cytiva) and curves were plotted using GraphPad Prism 5 (GraphPad Software, U.S.A.). All experiments were performed at 22 °C with a running buffer containing 10 mM HEPES, 500 mM NaCl, 50 μM EDTA, and 0.005% (v/v) TWEEN 20 at pH 8.0. The surface was conditioned following the standard manufacturer’s guidelines and protein immobilization was performed with a 30–60 s pulse (flow rate of 5 μL/min) of Doc (150 nM) in running buffer. […] Surface regeneration was performed with a 1 min pulse of 0.5 M imidazole followed by a 1 min pulse of 0.35 M of EDTA at pH 8.0.
Binding to Doc was performed using a multicycle kinetics (MCK) setup for peptides 7, 10, and 14, while the remaining samples were tested using a single-cycle kinetics (SCK) setup. The surface was fully regenerated in between each analyte in both cases. In the MCK experiments, increasing concentrations of each analyte were injected with an 80 s pulse (30 μL/min) and dissociation times varied depending on the time required to fully dissociate the complex. The double-referenced sensorgrams (raw data subtracted from a blank injection and reference surface responses) were analyzed using a kinetic and/or a steady-state 1:1 binding model. In the SCK experiments, typically six concentrations of each analyte were sequentially injected with 80 s pulses (30 μL/min), and dissociation times varied depending on the time required to dissociate at least 5% of the complex. The double-referenced sensorgrams were fitted using a kinetic 1:1 binding model.
At least three independent replicates were measured for each analyte (ESI section 5). When a steady-state fit was applied, the reported Kd and its uncertainty correspond, respectively, to the average and standard deviations of the Kd obtained in each measurement. When a kinetic fit was applied, the reported rate constants (kon and koff) and their uncertainties correspond, respectively, to the average and standard deviations of the rate constants obtained in each measurement. In this case, reported Kd were calculated using the equation below, and the standard deviation of the rate constants was propagated. [drawing 1]

DocSTm [2] = experiment: Differential scanning fluorimetry (thermal stabilisation of Doc); assay type: binding, S. Typhimurium; conditions: for melting temperature shift ΔTm: DSF, DocSTm 5 μM, analyte 50 μM, Tm with analyte minus Tm of free DocSTm (42.9 ± 0.9 °C), SYPRO Orange, 20 mM K2HPO4, 50 mM (NH4)2SO4, pH 8.0, triplicate; for Average Tm / Tm: DocSTm 5 µM + 50 µM binder; for Average Tm: average of 3 replicates
Procedure: Experiments were performed in a Mx3005P qPCR System (Agilent) collecting fluorescence data with a temperature ramp of 25 to 95 °C. Samples were prepared in a buffer containing 20 mM K2HPO4 and 50 mM (NH4)2SO4 at pH 8.0. The SYPRO Orange dye (Sigma-Aldrich, 5000× stock in DMSO) was used to monitor protein denaturation and was diluted to a final concentration of 3×. For binding experiments, the final concentration of Doc was 5 μM. Each condition was performed in triplicate (ESI section 4) and the melting curves were plotted using GraphPad Prism 5 (GraphPad Software, U.S.A.). The melting temperatures were obtained by fitting the sigmoidal section of the curves to a Boltzmann sigmoid function.

[3] = SPR, kinetic fit, KD calculated from mean koff and kon, SD propagated, 22 °C, pH 8.0

Structure (SMILES)	Kd (DocSTm [1]; SPR kinetic fit, replicate 1) [nM]	Kd (DocSTm [1]; SPR kinetic fit, replicate 2) [nM]	Kd (DocSTm [1]; SPR kinetic fit, replicate 3) [nM]	koff × 10^-6 (DocSTm [1]; SPR, 22 °C, pH 8.0)	kon × 10^6 (DocSTm [1]; SPR, 22 °C, pH 8.0)	Kd (DocSTm [1]; [3]) [nM]	Half-life of the complex (DocSTm [1]) [h]	melting temperature shift ΔTm (DocSTm [2]) [°C]	Average Tm (DocSTm [2]) [°C]	Tm (DocSTm [2]; replicate 1) [°C]	Tm (DocSTm [2]; replicate 2) [°C]	Tm (DocSTm [2]; replicate 3) [°C]	Kd (DocSTm [1]; SPR kinetic fit, replicate 4) [nM]
CC[C@H](C)[C@H](NC(=O)[C@H](C)NC(=O)[C@H](C)NC(=O)[C@H](Cc1ccccc1)NC(=O)[C@H](CCC(=O)O)NC(=O)[C@H](CC(=O)O)NC(=O)[C@H](CC(=O)O)NC(=O)[C@H](C)NC(=O)[C@H](Cc1c[nH]c2ccccc12)NC(C)=O)C(=O)N[C@@H](CCSC)C(=O)N[C@@H](C)C(=O)N[C@H](C(=O)N[C@@H](Cc1c[nH]cn1)C(=O)NCC(=O)N[C@@H](CC(N)=O)C(=O)N[C@@H](CCC(=O)O)C(=O)N[C@@H](CC(C)C)C(=O)N[C@@H](CCCNC(=N)N)C(=O)N[C@@H](CCC(=O)O)C(=O)N[C@@H](CC(C)C)C(=O)N[C@@H](C)C(=O)N[C@@H](CC(=O)O)C(=O)N[C@@H](CCCCN)C(=O)O)C(C)C [peptide 2] (Ac-WADDEFAAIMAVHGNELRELADK-OH; C-terminus assumed)	0.0523	0.0478	0.0551	59 ± 11 ×10^-6 s-1	1.136 ± 0.140 ×10^6 M-1 s-1	0.052 ± 0.012	3.3 ± 0.6	28.0 ± 1.0	70.9 ± 0.4	71.3	70.8	70.6	–
CC[C@H](C)[C@H](NC(=O)[C@H](C)NC(=O)[C@H](C)NC(=O)[C@H](Cc1ccccc1)NC(=O)[C@H](C)NC(=O)[C@H](CC(=O)O)NC(=O)[C@H](CC(=O)O)NC(=O)[C@H](CCSC)NC(=O)[C@H](Cc1c[nH]c2ccccc12)NC(C)=O)C(=O)N[C@@H](CCSC)C(=O)N[C@@H](C)C(=O)N[C@H](C(=O)N[C@@H](Cc1c[nH]cn1)C(=O)NCC(=O)N[C@@H](CC(N)=O)C(=O)N[C@@H](CCC(=O)O)C(=O)N[C@@H](CC(C)C)C(=O)N[C@@H](CCCNC(=N)N)C(=O)N[C@@H](CCC(=O)O)C(=O)N[C@@H](CC(C)C)C(=O)N[C@@H](C)C(=O)N[C@@H](CC(=O)O)C(=O)N[C@@H](CCCCN)C(=O)O)C(C)C [peptide 5] (Ac-WMDDAFAAIMAVHGNELRELADK-OH; C-terminus assumed)	0.0489	0.0513	0.0469	75 ± 5 ×10^-6 s-1	1.542 ± 0.147 ×10^6 M-1 s-1	0.049 ± 0.006	2.6 ± 0.2	23.4 ± 0.9	66.3 ± 0.1	66.3	66.3	66.2	–
CC[C@H](C)[C@H](NC(=O)[C@H](C)NC(=O)[C@H](C)NC(=O)[C@H](Cc1ccccc1)NC(=O)[C@H](CCC(=O)O)NC(=O)[C@H](CC(=O)O)NC(=O)[C@H](CC(=O)O)NC(=O)[C@H](CCSC)NC(=O)[C@H](Cc1c[nH]c2ccccc12)NC(C)=O)C(=O)N[C@@H](CCSC)C(=O)N[C@@H](C)C(=O)N[C@@H](C)C(=O)N[C@@H](Cc1c[nH]cn1)C(=O)NCC(=O)N[C@@H](CC(N)=O)C(=O)N[C@@H](CCC(=O)O)C(=O)N[C@@H](CC(C)C)C(=O)N[C@@H](CCCNC(=N)N)C(=O)N[C@@H](CCC(=O)O)C(=O)N[C@@H](CC(C)C)C(=O)N[C@@H](C)C(=O)N[C@@H](CC(=O)O)C(=O)N[C@@H](CCCCN)C(=O)O [peptide 9] (Ac-WMDDEFAAIMAAHGNELRELADK-OH; C-terminus assumed)	0.183	0.239	0.132	388 ± 57 ×10^-6 s-1	2.266 ± 0.942 ×10^6 M-1 s-1	0.171 ± 0.076	0.50 ± 0.07	24.6 ± 1.2	67.5 ± 0.7	68.3	67.4	66.9	–
CC[C@H](C)[C@H](NC(=O)[C@H](C)NC(=O)[C@H](C)NC(=O)[C@H](Cc1ccccc1)NC(=O)[C@H](CCC(=O)O)NC(=O)[C@H](CC(=O)O)NC(=O)[C@H](CC(=O)O)NC(=O)[C@H](CCSC)NC(=O)[C@H](Cc1c[nH]c2ccccc12)NC(C)=O)C(=O)N[C@@H](CCSC)C(=O)N[C@@H](C)C(=O)N[C@H](C(=O)N[C@@H](Cc1c[nH]cn1)C(=O)N[C@@H](C)C(=O)N[C@@H](CC(N)=O)C(=O)N[C@@H](CCC(=O)O)C(=O)N[C@@H](CC(C)C)C(=O)N[C@@H](CCCNC(=N)N)C(=O)N[C@@H](CCC(=O)O)C(=O)N[C@@H](CC(C)C)C(=O)N[C@@H](C)C(=O)N[C@@H](CC(=O)O)C(=O)N[C@@H](CCCCN)C(=O)O)C(C)C [peptide 11] (Ac-WMDDEFAAIMAVHANELRELADK-OH; C-terminus assumed)	0.13	0.0743	0.0769	197 ± 49 ×10^-6 s-1	2.350 ± 1.103 ×10^6 M-1 s-1	0.084 ± 0.045	1.0 ± 0.2	–	69.0 ± 0.2	68.8	69.2	68.9	–
CC[C@H](C)[C@H](NC(=O)[C@H](C)NC(=O)[C@H](C)NC(=O)[C@H](Cc1ccccc1)NC(=O)[C@H](CCC(=O)O)NC(=O)[C@H](CC(=O)O)NC(=O)[C@H](CC(=O)O)NC(=O)[C@H](CCSC)NC(=O)[C@H](Cc1c[nH]c2ccccc12)NC(C)=O)C(=O)N[C@@H](CCSC)C(=O)N[C@@H](C)C(=O)N[C@H](C(=O)N[C@@H](Cc1c[nH]cn1)C(=O)NCC(=O)N[C@@H](C)C(=O)N[C@@H](CCC(=O)O)C(=O)N[C@@H](CC(C)C)C(=O)N[C@@H](CCCNC(=N)N)C(=O)N[C@@H](CCC(=O)O)C(=O)N[C@@H](CC(C)C)C(=O)N[C@@H](C)C(=O)N[C@@H](CC(=O)O)C(=O)N[C@@H](CCCCN)C(=O)O)C(C)C [peptide 12] (Ac-WMDDEFAAIMAVHGAELRELADK-OH; C-terminus assumed)	0.251	0.166	0.0853	203 ± 103 ×10^-6 s-1	1.396 ± 0.154 ×10^6 M-1 s-1	0.145 ± 0.076	1.0 ± 0.5	28.2 ± 1.2	71.1 ± 0.7	71.8	71.0	70.4	0.0833
